# Data taken from ChEMBL document CHEMBL1125844, “Novel non-nucleoside inhibitors of HIV-1 reverse transcriptase. 1. Tricyclic pyridobenzo- and dipyridodiazepinones” (J Med Chem, 1991).
# Assays:
# [1] = target: Human immunodeficiency virus type 1 reverse transcriptase (Human immunodeficiency virus 1) (UniProt Q72547); assay: In vitro inhibitory activity against human immunodeficiency virus type 1 (HIV-1) reverse transcriptase (RT) at a concentration of 10 ug/mL.
# [2] = target: Human immunodeficiency virus type 1 reverse transcriptase (Human immunodeficiency virus 1, UniProt Q72547); assay: In vitro inhibitory activity against human immunodeficiency virus type 1 (HIV-1) reverse transcriptase (RT)
SMILES,inhibition [1],IC50 [2]
CN1C(=O)c2cccnc2N(Cc2ccccc2)c2ccccc21,93%,9000 nM
CCc1ccnc2c1NC(=O)c1cccnc1N2CC,100%,110 nM
CCN1c2ccc(C(N)=O)cc2N(C)C(=O)c2cccnc21,66%,27000 nM
CCN1C(=O)c2cccnc2N(C)c2ccccc21,84%,> 1000 nM
CCN(CC)C(=O)c1ccc2c(c1)N(C)C(=O)c1cccnc1N2CC,11%,> 1000 nM
COCCN1C(=O)c2cccnc2Nc2ccccc21,36%,> 1000 nM
CCN1c2cc([N+](=O)[O-])ccc2N(C)C(=O)c2cc(Br)cnc21,95%,890 nM
CCN1c2cc(N=[N+]=[N-])ccc2N(C)C(=O)c2cccnc21,100%,140 nM
CCN1c2cccc(C)c2N(Cc2ccccc2)C(=O)c2cccnc21,40%,> 1000 nM
CCN1c2ncccc2C(=O)N(C)c2ccc(C)nc21,100%,170 nM
CN1C(=O)c2cccnc2N(CCF)c2ncccc21,96%,2900 nM
CN1C(=O)c2cccnc2N(CCO)c2ccccc21,58%,> 1000 nM
C=CCN1C(=O)c2cccnc2Nc2ccccc21,96%,1400 nM
CN1C(=O)c2cccnc2N(CC(=O)O)c2ccccc21,60%,> 1000 nM
CCN1c2ccc(C)cc2N(C)C(=O)c2cccnc21,100%,190 nM
CCN1c2ccccc2C(=O)N(C)c2cccnc21,99%,500 nM
CN1C(=O)c2ccccc2N(C)c2ncccc21,74%,> 1000 nM
CCN1c2ccc(C)cc2C(=O)N(C)c2cccnc21,99%,580 nM
Cc1cccc2c1NC(=O)c1cccnc1N2,77%,> 1000 nM
CCN1c2cc(C(=O)c3ccccc3)ccc2N(C)C(=O)c2cccnc21,73%,> 1000 nM
Cc1ccc2c(c1)N(C)C(=O)c1c(C)cc(C)nc1N2C,49%,> 1000 nM
CCN1c2cc(C(F)(F)F)cc(Cl)c2N(C)C(=O)c2cccnc21,96%,290 nM
CCN1c2ccc([N+](=O)[O-])cc2N(C)C(=O)c2cc(Br)cnc21,64%,> 1000 nM
CN1C(=O)c2cccnc2N(C(C)(C)C)c2ncccc21,87%,11000 nM
O=C1Nc2cccnc2N(C2CC2)c2ncccc21,99%,450 nM

SMILES,inhibition [1],IC50 [2]
CCN1c2cccc(C)c2NC(=O)c2cccnc21,100%,38 nM
CCN1c2ccc(C(=O)OC)cc2N(C)C(=O)c2cccnc21,94%,1100 nM
Cc1cc(C)c2c(n1)Nc1ccccc1C(=O)N2,51%,> 1000 nM
CCN1c2ccc(CO)cc2N(C)C(=O)c2cccnc21,78%,> 1000 nM
CN1C(=O)c2cccnc2N(CCF)c2ccccc21,97%,1000 nM
CCN1c2ncccc2C(=O)Nc2c(C)ccnc21,100%,35 nM
O=C1Nc2c(CO)ccnc2N(C2CC2)c2ncccc21,94%,3000 nM
CN1C(=O)c2cccnc2N(C2CCCCC2)c2ncccc21,73%,> 1000 nM
CCN1c2cc(C(F)(F)F)cc(Br)c2N(C)C(=O)c2cccnc21,71%,> 1000 nM
CCN1C(=O)c2cccnc2Nc2ccccc21,87%,> 1000 nM
O=C1Nc2cccnc2Nc2ccccc21,23%,> 1000 nM
CCN1c2ccccc2N(C)C(=O)c2ccc(F)nc21,84%,2900 nM
C#CN1c2ccccc2N(C)C(=O)c2cccnc21,97%,650 nM
CCN1c2ncccc2C(=O)N(C)c2c(C)ccnc21,98%,1900 nM
Cc1cc2c(cc1C)N(CCN(C)C)c1ncccc1C(=O)N2C,0%,> 1000 nM
C=CCN1c2ncccc2C(=O)N(C)c2cccnc21,99%,850 nM
CN1C(=O)c2ccccc2N(C)c2ccccc21,52%,> 1000 nM
CC[C@@H](C)N1c2ncccc2NC(=O)c2cccnc21,85%,> 1000 nM
CCCCN1c2ccccc2N(C)C(=O)c2cccnc21,81%,1000 nM
CC(C)N1c2ccccc2N(C)C(=O)c2cccnc21,98%,200 nM
CCN1c2ccccc2NC(=O)c2cccnc21,99%,380 nM
O=C1Nc2cccnc2N(C2CCC2)c2ncccc21,99%,430 nM
CCN1c2ncccc2C(=O)N(C)c2cc(Cl)c(N)nc21,98%,850 nM
CCN1c2cc(Cl)c(Cl)cc2N(C)C(=O)c2cccnc21,100%,62 nM
CC(=O)N1c2ccccc2N(C)C(=O)c2cccnc21,72%,> 1000 nM

SMILES,inhibition [1],IC50 [2]
CCN1c2ccc(OC)cc2N(C)C(=O)c2cccnc21,95%,2100 nM
CCN1c2ccc(CNC(=O)C(C)(C)C)cc2N(C)C(=O)c2cccnc21,15%,> 1000 nM
CCN1c2ccc(C(=O)O)cc2N(C)C(=O)c2cccnc21,18%,> 1000 nM
CCOC(=O)N1c2ccccc2N(C)C(=O)c2cccnc21,13%,> 1000 nM
CCOC(=O)CN1c2ccccc2N(C)C(=O)c2cccnc21,56%,16000 nM
CN1C(=O)c2cccnc2N(C)c2ccccc21,85%,> 1000 nM
O=C1Nc2cccnc2N(c2ccccc2)c2ncccc21,71%,> 1000 nM
CCN1c2ncccc2NC(=O)c2c(C)ccnc21,80%,> 1000 nM
CC(=O)N1c2cc(C)c(C)cc2N(C)C(=O)c2cccnc21,96%,420 nM
CCN1C(=O)c2cccc(C)c2N(CC)c2ncccc21,99%,650 nM
N#Cc1ccnc2c1NC(=O)c1cccnc1N2C1CC1,96%,1250 nM
CCN1c2ccccc2N(CF)C(=O)c2cccnc21,85%,> 1000 nM
CCN1c2cc(C(F)(F)F)ccc2N(C)C(=O)c2cccnc21,97%,230 nM
O=C1Nc2ccccc2Nc2ncccc21,22%,> 1000 nM
CCN1c2ncccc2C(=O)N(C)c2cc(Cl)cnc21,99%,> 1000 nM
CCN1c2ncccc2C(=O)N(C)c2cc([N+](=O)[O-])cnc21,64%,> 1000 nM
CCN1c2ncccc2NC(=O)c2cccnc21,99%,440 nM
CSCN1c2ccccc2N(C)C(=O)c2cccnc21,84%,6600 nM
CCN1c2cccc(C)c2N(C)C(=O)c2cccnc21,100%,240 nM
CCN1c2ccc(CN)cc2N(C)C(=O)c2cccnc21,84%,> 1000 nM
CN1C(=O)c2cccnc2Nc2ccccc21,43%,> 1000 nM
Cc1ccnc2c1NC(=O)c1c(O)ccnc1N2C1CC1,96%,> 1000 nM
CCN1c2cc(N)ccc2N(C)C(=O)c2cccnc21,89%,4500 nM
O=C1c2cccnc2Nc2ccccc2N1CCO,46%,> 1000 nM
CCN1C(=O)c2cccnc2N(CC)c2cccc(C)c21,90%,8000 nM

SMILES,inhibition [1],IC50 [2]
CCN1c2ncccc2C(=O)N(C)c2cccnc21,100%,125 nM
CCN1c2ccccc2N(C)C(=O)c2cc(Cl)cnc21,91%,7600 nM
CN1C(=O)c2cccnc2N(CC(=O)OC(C)(C)C)c2ccccc21,87%,> 1000 nM
CCN1c2ncccc2C(=O)Nc2c(Cl)ccnc21,100%,95 nM
CC(C)(C)OC(=O)CN1C(=O)c2cccnc2Nc2ccccc21,39%,> 1000 nM
CCN1c2nc(C)ccc2C(=O)N(C)c2cccnc21,65%,> 1000 nM
CCN1c2ccccc2N(C)C(=O)c2cc(C(F)(F)C(F)(F)F)cnc21,5%,> 1000 nM
CCN1c2nc(C)c(C)cc2NC(=O)c2cccnc21,100%,410 nM
CCN1C(=O)c2cccnc2N(CC)c2ccccc21,99%,380 nM
CCN1c2ccccc2C(=O)N(C)c2ccccc21,80%,> 1000 nM
CCN1c2ncccc2C(=O)Nc2c(OC)ccnc21,96%,> 1000 nM
CN(C)C(=O)CN1C(=O)c2cccnc2Nc2ccccc21,24%,> 1000 nM
CCN1c2ncccc2C(=O)N(C)c2cc(C)c(C)nc21,100%,240 nM
CCN1c2ccc(C)c(C)c2N(C)C(=O)c2cccnc21,99%,36 nM
CC(C)N1c2ncccc2NC(=O)c2cccnc21,99%,590 nM
CCN1c2ncccc2C(=O)N(C(C)=O)c2cccnc21,99%,360 nM
C=CCN1C(=O)c2cccnc2Nc2ccc(Cl)cc21,79%,> 1000 nM
CC(=O)N1c2ncccc2C(=O)N(C)c2cccnc21,73%,15300 nM
Cc1ccnc2c1NC(=O)c1cccnc1N2C1CC1,100%,
CCN1c2ncccc2C(=O)Nc2c(O)ccnc21,94%,> 1000 nM
CCN1c2ncccc2C(=O)N(C)c2cc(C)cnc21,100%,760 nM
CCN1c2ccccc2N(C)C(=O)c2cccnc21,100%,350 nM
CCN1c2cc(Cl)ccc2N(C)C(=O)c2cccnc21,100%,170 nM
